Data reported in US20230406859A1, “METHOTREXATE ANALOGS AND METHODS OF USE” (The United States of America, as represented by the …, priority 2020, published 2023).

Assays:
Type in all cases: cell-based
HBL1 cell line = test: CellTiter-Glo cell viability (cytotox), HBL1 cell line, 72 hours; conditions: HBL1 cell line, CellTiter-Glo; unit inferred
Method: CellTiter-Glo viability assays: Five μL of cells (2500 cells) from the 12-well plate culture were plated into white 1536-well plates (Greiner, Monroe, NC, 789173-F) in 6 replicates. CellTiter-Glo Luminescent Cell Viability Assay (CTG) (Promega, G7572), 2.5 μL/well reagent was added with a BioRAPTR FRD (Beckman Coulter, Sykesville, MD), plates were incubated in the dark at ambient temperature for 10 min, and luminescence measured with a ViewLux 1430 Ultra HTS (Perkin Elmer, Waltham, MA).

DHFR = biological target: T1, DHFR (Homo sapiens, UniProt P00374); conditions: HBL1 cells, Western blot
T1 construct: Western blot detection of DHFR levels after treatment of HBL1 cells for 16 h; endogenous in cells; host or cells: HBL1 lymphoma cell line
T1 sequence (P00374 1-187): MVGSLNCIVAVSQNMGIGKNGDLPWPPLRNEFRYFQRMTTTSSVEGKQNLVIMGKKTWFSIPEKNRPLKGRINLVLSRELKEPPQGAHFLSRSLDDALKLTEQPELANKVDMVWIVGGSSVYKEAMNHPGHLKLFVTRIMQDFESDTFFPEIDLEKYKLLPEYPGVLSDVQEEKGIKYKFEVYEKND
From the text: (§1) Human embryonic kidney HEK293T cells and immortalized fibroblasts were maintained in DMEM (Gibco) supplemented with 10% fetal bovine serum (Hyclone), 2 mmol/L L-glutamine, Hepes (Gibco), and 100 U/mL penicillin/streptomycin (Invitrogen). The lymphoma cell line HBL1 was maintained in RPMI (Life Technology) supplemented with 5% fetal bovine serum (Hyclone), 2 mmol/L 1-glutamine, Hepes (Gibco), and 100 U/mL penicillin/streptomycin (Invitrogen).
Western blotting: Cells at confluence from 12-well plate treatments were washed with PBS and lysed in 75 μL/well NP40 lysis buffer (Cell Signaling), subjected to agitation and centrifugation. Approximately 100 μg of total protein was used per analysis. […] Blots were first incubated with 1:2000 dilution of anti-human DHFR antibody (Abcam, ab124814, host rabbit) for 16 h at 4° C. with shaking, washed 3× with TBS-T and incubated with 1:2000 dilution of anti-human β-actin primary antibody (Cell Signaling, host mouse) for 1 h at ambient temperature with shaking. Blots were then washed 3× with TBS-T and incubated with 1:5000 HRP secondary antibody (Novex, anti-Rabbit IgG raised in Goat, 1 mg/ml) for 1 h at ambient temperature, then washed with 3×TBS-T and developed with Pierce ECL Dura reagent for 5 min. Immunoreactive bands were imaged on a ChemiDoc Imaging System (Bio-Rad) with 20 s chemiluminescence exposure. The molecular weight marker ladder was imaged with colorimetric auto-exposure, and both images merged.

[1] = biological target: T2, human DHFR-HiBiT fusion protein (Homo sapiens, UniProt P00374); test: DHFR-HiBiT assay (high-throughput DHFR abundance) in HBL1 cells; conditions: for Dmax: % change in untreated cellular DHFR level (control), negative = degradation, positive = stabilization, HBL1, 24 h, read-out: efficacy (%)
T2 construct: expressed in transfected cells; host or cells: HBL1 cells retrovirally infected with pBMN-Ires-Lyt-2 carrying DHFR-HiBiT
T2 sequence (P00374 with tags, fused parts or gaps): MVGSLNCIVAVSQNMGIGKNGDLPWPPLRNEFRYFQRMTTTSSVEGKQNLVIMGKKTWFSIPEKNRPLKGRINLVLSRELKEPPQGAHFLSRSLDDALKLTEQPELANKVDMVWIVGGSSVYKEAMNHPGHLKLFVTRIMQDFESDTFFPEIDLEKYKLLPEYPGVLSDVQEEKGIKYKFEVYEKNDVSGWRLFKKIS
From the text: The human DHFR-HiBiT construct was synthetized (Bio Basic) and cloned into the retroviral vector pBMN-Ires-Lyt-2 (provided by G. Nolan, Stanford University, Stanford, CA) which expresses the coding region of mouse CD8a (Lyt-2) using the restriction sites BamHI/XhoI. All constructs were sequenced to validate authenticity. Infected cells were positively selected based on murine CD8a expression using magnetic beads (Miltenyi Biotech).
as §1, with “Cell culture: Human” for “Human”, “cells” for “cells and immortalized fibroblasts”, “1-glutamine, HEPES (Gibco)” for “L-glutamine, Hepes (Gibco),”, “were” for “was”, “L-glutamine, HEPES (Gibco)” for “1-glutamine, Hepes (Gibco),”
Transfection and retroviral infections: Transfections were performed using Lipofectamine 2000 (Invitrogen) according to the manufacturer's protocol. For retroviral infections, viruses were produced in HEK293T cells and used to infect HBL1 cell line. […] Supernatants containing the retrovirus were collected and filtered at 48- and 72-hours post-transfection. HBL1 cells were centrifuged and then resuspended with the retroviral supernatant with 8 μg/ml of polybrene. The cells were spin-infected twice on consecutive days at 2,500 rpm, at RT, for 90 minutes.
Lytic HiBiT Detection: Cells were plated in solid white 1536-well tissue culture plates (Greiner), at the concentration of 2000 cells/well. After treatment, an equal volume of Nano-Glo HiBiT Lytic Reagent (Promega) containing the substrate furimazine and Large BiT (LgBiT) was added to the cells according to the manufacturer's protocol. Cells were incubated for 10 min at room temperature, and luminescence was measured using a Perkin Elmer ViewLux microplate imager with 30 seconds of exposure time.

Row | Structure (SMILES) | Dmax [1] | DC50 ([1]; HBL1 cells expressing DHFR-HiBiT, 24 h, degradation or stabilization potency, average of N = 2-5, read-out: Ave EC50) | IC50 (HBL1 cell line) | effect on DHFR protein levels (DHFR)
1 | Cc1ncsc1-c1ccc(CNC(=O)C2C[C@@H](O)CN2C(=O)C(NC(=O)COCCOCCOCCOCCNC(=O)CC[C@H](NC(=O)c2ccc(N(C)Cc3cnc4nc(N)nc(N)c4n3)cc2)C(=O)O)C(C)(C)C)cc1 (stereo partly drawn) [NCGC00685964, (23S)-23-(4-(((2,4-diaminopteridin-6-yl)methyl)(methyl)amino)benzamido)-3-((4R)-4-hydroxy-2-((4-(4-methylthiazol-5-yl)benzyl)carbamoyl)pyrrolidine-1-carbonyl)-2,2-dimethyl-5,20-dioxo-7,10,13,16-tetraoxa-4,19-diazatetracosan-24-oic acid] |  |  | 21.5 µM | no alterations in DHFR protein levels
2 | COC(=O)[C@H](CCC(=O)NCCCCCCCCNc1cccc2c1C(=O)N(C1CCC(=O)NC1=O)C2=O)NC(=O)c1ccc(N(C)Cc2cnc3nc(N)nc(N)c3n2)cc1 (stereo partly shown) [NCGC00687472] | 62.9% |  | 12.2 µM | 
3 | CN(Cc1cnc2nc(N)nc(N)c2n1)c1ccc(C(=O)N[C@@H](CCC(=O)NCCOCCOCCNc2cccc3c2C(=O)N(C2CCC(=O)NC2=O)C3=O)C(=O)O)cc1 (stereo partly shown) [NCGC00687555] | 56.9% |  | 3.93 µM | 
4 | COC(=O)[C@H](CCC(=O)NCCCCCCCCNc1cccc2c1C(=O)N(C1CCC(=O)NC1=O)C2=O)NC(=O)CC[C@H](NC(=O)CC[C@H](NC(=O)c1ccc(N(C)Cc2cnc3nc(N)nc(N)c3n2)cc1)C(=O)O)C(=O)OC (stereo partly drawn) [NCGC00687569, N2-(4-(((2,4-diaminopteridin-6-yl)methyl)(methyl)amino)benzoyl)-N5-((2S)-5-(((2S)-5-((8-((2-(2,6-dioxopiperidin-3-yl)-1,3-dioxoisoindolin-4-yl)amino)octyl)amino)-1-methoxy-1,5-dioxopentan-2-yl)amino)-1-methoxy-1,5-dioxopentan-2-yl)-L-glutamine] | 53.9% |  | 21.5 µM | 
5 | COC(=O)[C@H](CCC(=O)NCCCCCCCCNc1cccc2c1C(=O)N(C1CCC(=O)NC1=O)C2=O)NC(=O)CC[C@H](NC(=O)c1ccc(N(C)Cc2cnc3nc(N)nc(N)c3n2)cc1)C(=O)O (stereo partly shown) [NCGC00687576] | 62.3% |  | 17 µM | 
6 | COC(=O)[C@H](CCC(=O)NCCCCCCCCNc1cccc2c1C(=O)N(C1CCC(=O)NC1=O)C2=O)NC(=O)CC[C@H](NC(=O)CC[C@H](NC(=O)CC[C@H](NC(=O)c1ccc(N(C)Cc2cnc3nc(N)nc(N)c3n2)cc1)C(=O)O)C(=O)OC)C(=O)OC (stereo partly drawn) [NCGC00687807, (2S,7S,12S,17S)-2-(4-(((2,4-diaminopteridin-6-yl)methyl)(methyl)amino)benzamido)-29-((2-(2,6-dioxopiperidin-3-yl)-1,3-dioxoisoindolin-4-yl)amino)-7,12,17-tris(methoxycarbonyl)-5,10,15,20-tetraoxo-6,11,16,21-tetraazanonacosanoic acid] | 48.1% |  | 20.8 µM | 
7 | COC(=O)[C@H](CCC(=O)NCCCCCCCCNc1cccc2c1C(=O)N(C1CCC(=O)NC1=O)C2=O)NC(=O)CC[C@H](NC(=O)CC[C@H](NC(=O)CC[C@H](NC(=O)CC[C@H](NC(=O)c1ccc(N(C)Cc2cnc3nc(N)nc(N)c3n2)cc1)C(=O)O)C(=O)OC)C(=O)OC)C(=O)OC (stereo partly drawn) [NCGC00687811, (2S,7S,12S,17S,22S)-2-(4-(((2,4-diaminopteridin-6-yl)methyl)(methyl)amino)benzamido)-34-((2-(2,6-dioxopiperidin-3-yl)-1,3-dioxoisoindolin-4-yl)amino)-7,12,17,22-tetrakis(methoxycarbonyl)-5,10,15,20,25-pentaoxo-6,11,16,21,26-pentaazatetratriacontanoic acid] | 40.5% |  | 22.4 µM | 
8 | CN1C(=O)CCC(N2C(=O)c3cccc(NCCCCCCCCNC(=O)CC[C@H](NC(=O)c4ccc(N(C)Cc5cnc6nc(N)nc(N)c6n5)cc4)C(=O)O)c3C2=O)C1=O (stereo partly drawn) [NCGC00687847, N2-(4-(((2,4-diaminopteridin-6-yl)methyl)(methyl)amino)benzoyl)-N5-(8-((2-(1-methyl-2,6-dioxopiperidin-3-yl)-1,3-dioxoisoindolin-4-yl)amino)octyl)-L-glutamine] | -93.2% | 3 µM | 25.4 µM | 

Further lines, with some results ahead:

Row | Dmax [1] | DC50 ([1]; HBL1 cells expressing DHFR-HiBiT, 24 h, degradation or stabilization potency, average of N = 2-5, read-out: Ave EC50) | Structure (SMILES) | IC50 (HBL1 cell line) | effect on DHFR protein levels (DHFR)
9 | 32.8% |  | Nc1nc(N)c2nc(CN(CCCCCCNC(=O)CCOCCOCCOCCOCCOc3cccc4c3C(=O)N(C3CCC(=O)NC3=O)C4=O)c3ccc(C(=O)N[C@@H](CCC(=O)O)C(=O)O)cc3)cnc2n1 (stereo partly shown) [NCGC00690395, (4-(((2,4-diaminopteridin-6-yl)methyl)(1-((2-(2,6-dioxopiperidin-3-yl)-1,3-dioxoisoindolin-4-yl)oxy)-15-oxo-3,6,9,12-tetraoxa-16-azadocosan-22-yl)amino)benzoyl)glutamic acid] | 33.4 µM | 
10 | 64.1% |  | Cc1ncsc1-c1ccc(CNC(=O)[C@@H]2C[C@@H](O)CN2C(=O)C(NC(=O)CCOCCOCCC(=O)NCCCCCCN(Cc2cnc3nc(N)nc(N)c3n2)c2ccc(C(=O)N[C@@H](CCC(=O)O)C(=O)O)cc2)C(C)(C)C)cc1 (stereo partly drawn) [NCGC00690397, (4-(((2,4-diaminopteridin-6-yl)methyl)(3-((2S,4R)-4-hydroxy-2-((4-(4-methylthiazol-5-yl)benzyl)carbamoyl)pyrrolidine-1-carbonyl)-2,2-dimethyl-5,14-dioxo-8,11-dioxa-4,15-diazahenicosan-21-yl)amino)benzoyl)glutamic acid] | 28.7 µM | 
11 | 26% |  | Cc1ncsc1-c1ccc(CNC(=O)[C@@H]2C[C@@H](O)CN2C(=O)C(NC(=O)CCOCCOCCOCCOCCC(=O)NCCCCCCN(Cc2cnc3nc(N)nc(N)c3n2)c2ccc(C(=O)N[C@@H](CCC(=O)O)C(=O)O)cc2)C(C)(C)C)cc1 (stereo partly drawn) [NCGC00690398, (4-(((2,4-diaminopteridin-6-yl)methyl)(3-((2S,4R)-4-hydroxy-2-((4-(4-methylthiazol-5-yl)benzyl)carbamoyl)pyrrolidine-1-carbonyl)-2,2-dimethyl-5,20-dioxo-8,11,14,17-tetraoxa-4,21-diazaheptacosan-27-yl)amino)benzoyl)glutamic acid] | 36.7 µM | 
12 | 27.6% |  | COC(=O)[C@H](CCC(=O)NCCOCCOCCOCCNC(=O)COc1cccc2c1C(=O)N(C1CCC(=O)NC1=O)C2=O)NC(=O)c1ccc(N(C)Cc2cnc3nc(N)nc(N)c3n2)cc1 (stereo partly drawn) [NCGC00842394, Methyl (19S)-19-(4-(((2,4-diaminopteridin-6-yl)methyl)(methyl)amino)benzamido)-1-((2-(2,6-dioxopiperidin-3-yl)-1,3-dioxoisoindolin-4-yl)oxy)-2,16-dioxo-6,9,12-trioxa-3,15-diazaicosan-20-oate] | 33.9 µM | 
